Assays:
[1] = test system: Aurora kinases; test: Kinase inhibition profile of DLT11 at 20 μM, Aurora kinases; type: biochemical, human; settings: 20 μM (FIG. 3)
Protocol: The kinase inhibition profile of DLT11 at 20 μM was determined using 250 protein kinases. Residual activity values were measured by testing each compound at one concentration in duplicate in each kinase assay. A radiometric protein kinase assay (33 PanQinase®Activity Assay) was used for measuring the kinase activity of 250 protein kinases. All kinase assays were performed in 96-well flashPlates™ from Perkin Elmer (Boston, Mass., USA) in a 50 μl reaction volume. The reaction cocktail was pipetted in 4 steps in the following order: • 10 μl of non-radioactive ATP solution (in H2O) • 25 μl of assay buffer/[γ-33P]-ATP mixture • 5 μl of test sample in 10% DMSO • 10 μl of enzyme/substrate mixture […]
Incorporation of ^33Pi (counting of “cpm”) was determined with a microplate scintillation counter (Microbeta, Wallac).
For each kinase, the median value of the cpm of three wells with complete reaction cocktails, but without kinase, was defined as “low control” (n=3). This value reflects unspecific binding of radioactivity to the plate in the absence of protein kinase but in the presence of the substrate. […] The residual activity (in %) for each compound well was calculated by using the following formula: Res. Activity (%)=100×[(cpm of compound−low control)/(high control−low control)]

[2] = target: DYRK1A (Rattus norvegicus, UniProt Q63470); test: Kinase activity assay, DYRK1A (GST fusion, myelin basic protein substrate); type: biochemical
Protocol: Buffer A: 10 mM MgCl2, 1 mM EGTA, 1 mM DTT, 25 mM Tris-HCl pH 7.5, 50 μg heparin/ml. Buffer C: 60 mM β-glycerophosphate, 15 mM p-nitrophenylphosphate, 25 mM Mops (pH 7.2), 5 mM EGTA, 15 mM MgCl2, 1 mM DTT, 1 mM sodium vanadate, 1 mM phenyl phosphate.
Kinase activities were assayed in Buffer A or C, at 30° C., at a final ATP concentration of 15 μM. Blank values were subtracted and activities expressed in % of the maximal activity, i.e. in the absence of inhibitors. Controls were performed with appropriate dilutions of DMSO.
DYRK1A (rat, recombinant, expressed in E. coli as a GST fusion protein) was purified by affinity chromatography on glutathione-agarose and assayed as described for CDK1/cyclin B using myelin basic protein (1 mg/ml) as a substrate.

[3] = test system: WI38 normal fibroblasts; test: Cellular imaging (quantitative videomicroscopy), global growth ratio, WI38; type: cell-based, human; settings: 50 μM, 72 h
From the text: As the MTT test is based on the mitochondria functions, we also investigated the effects of the di- and tri-vanilloyl derivatives according to the invention on cell proliferation, migration and morphology by means of a cellular imaging approach (Debeir et al., Cytometry 60:29-40, 2004; Debeir et al., IEEE Trans Med Imaging 24:697-711, 2005) either in the human U373-MG glioma cell line, which is apoptosis-resistant but autophagy-sensitive (Lefranc F et al., Neurosurgery 2008) and in the human A549 non-small-cell-lung cancer cell line, which is apoptosis-resistant and autophagy-resistant (Mijatovic T et al., Neoplasia 2006, May; 8(5):402-12).
Investigations have also been performed in human normal fibroblasts (WS1 and WI38—see Tables 4 and 5). Cellular imaging relied on the use of computer-assisted phase-contrast microscopy making possible to film the behaviour of living cells in culture dishes for several days. […]
The behaviour of the cells, in terms of morphology, growth and death were thus investigated. The effect on the overall growth was measured by counting the number of cells on the first (0 h) and the last image (72 h) of each film. […] The ratio GGRtreated cells/GGRcontrol cells, was further calculated thereby obtaining a value that describes the effect of compounds of the present invention on the overall cell growth. […]

Structure (SMILES) | inhibition of 2 Aurora kinases [1] | inhibition at 10 µM [2] | % ENZYMATIC ACTIVITY, Dyrk1A ([2]; 10 μM, 1% DMSO, 15 μM ATP, residual activity) | Global Grow Ratio Treated/Ct (GGR T/Ct) determined by Video Quantitative microscopy, WI38 [3]
COc1cc(C(=O)OCCCCCCOC(=O)c2ccc(O)c(OC)c2)ccc1O [DLT11, Hexane-1,6-diyl bis-(4-hydroxy-3-methoxybenzoate)] | more than 80% | – | – | –
COc1cc(C(=O)OCCOC(=O)c2ccc(O)c(OC)c2)ccc1O [DLT1, Ethane-1,2-diyl bis-(4-hydroxy-3-methoxybenzoate)] | – | 51% | 49% | 0.8

From patent US20110280940A1, “Di-Vanilloyl And Tri-Vanilloyl Derivatives For Use In Anti-Cancer Therapy” (priority 2008, published 2011)
